# Where two headings read alike, the source gives them in different places.
# What was measured:
# [1] = molecular target: CDK12/CyclinK (Homo sapiens, UniProt Q9NYV4); assay: In vitro CDK12/cyclinK kinase assay; format: biochemical; design: purchased Reaction Biology Corp. (CRO that ran the assay)
# Procedure: In vitro CDK12/cyclinK assays for all compounds and in vitro kinome-wide inhibition profiling of 30d at 10 μM were performed by a CRO company (Reaction Biology Corp., San Diego, CA, USA).
# [2] = system: HCC1954 cells; assay: Antiproliferation assay (Cell-titer Glo, 72 h); format: cell-based; settings: Homo sapiens, 72 h, means and standard deviations from three independent assays, read-out: HCC1954 (GI50/μM)
# Procedure: (§1) Breast-cancer cell lines (SK-Br3, HCC-1954) were purchased from Korea Cell Line Bank (Seoul, Korea) and were cultured in RPMI medium supplemented with 10% FBS and penicillin/streptomycin (Welgene, Seoul, Korea). All cell lines were maintained at 37 °C in a cell incubator in the presence of 5% CO2.
# (§2) Breast-cancer cells in culture media (100 μL volume/well, 5000 SK-Br3 cells/well, 1000 HCC-1954 cells/well) were seeded in tissue culture-treated 96-well plates, and incubated at a cell incubator for 24 h. Serially diluted compounds (3-fold, 10 point from 10 mM, duplicated) were pre-plated and 500 nL of compound solutions were pin-transferred to the cells in the assay plates using pintool system (JANUS liquid handler, PerkinElmer, Waltham, MA, USA) and incubated at a cell incubator for 72 h. Cell-titer Glo^TM reagent (50 μL, Promega Corp., Madison, WI, USA) was added to each well, and the luminescence signal was read using an Envision^TM plate reader (PerkinElmer, Waltham, MA, USA). The titration curve fitting and IC50 values were generated using Prism 7.0 s/w (GraphPad, San Diego, CA, USA).
# [3] = system: SK-Br3 cells; assay: Antiproliferation assay (Cell-titer Glo, 72 h); format: cell-based; settings: Homo sapiens, SK-BR-3; 72 h; means and standard deviations from three independent assays; read-out: SK-Br3 (GI50/μM)
# Procedure: as §1, §2
# [4] = Tables 1-4, read-out: CDK12/CyclinK (IC50/μM)
# [5] = Table 5, means and standard deviations from three independent assays, read-out: CDK12/CyclinK (IC50/μM)
# CDK12/CyclinK, sequence (Q9NYV4 whole entry): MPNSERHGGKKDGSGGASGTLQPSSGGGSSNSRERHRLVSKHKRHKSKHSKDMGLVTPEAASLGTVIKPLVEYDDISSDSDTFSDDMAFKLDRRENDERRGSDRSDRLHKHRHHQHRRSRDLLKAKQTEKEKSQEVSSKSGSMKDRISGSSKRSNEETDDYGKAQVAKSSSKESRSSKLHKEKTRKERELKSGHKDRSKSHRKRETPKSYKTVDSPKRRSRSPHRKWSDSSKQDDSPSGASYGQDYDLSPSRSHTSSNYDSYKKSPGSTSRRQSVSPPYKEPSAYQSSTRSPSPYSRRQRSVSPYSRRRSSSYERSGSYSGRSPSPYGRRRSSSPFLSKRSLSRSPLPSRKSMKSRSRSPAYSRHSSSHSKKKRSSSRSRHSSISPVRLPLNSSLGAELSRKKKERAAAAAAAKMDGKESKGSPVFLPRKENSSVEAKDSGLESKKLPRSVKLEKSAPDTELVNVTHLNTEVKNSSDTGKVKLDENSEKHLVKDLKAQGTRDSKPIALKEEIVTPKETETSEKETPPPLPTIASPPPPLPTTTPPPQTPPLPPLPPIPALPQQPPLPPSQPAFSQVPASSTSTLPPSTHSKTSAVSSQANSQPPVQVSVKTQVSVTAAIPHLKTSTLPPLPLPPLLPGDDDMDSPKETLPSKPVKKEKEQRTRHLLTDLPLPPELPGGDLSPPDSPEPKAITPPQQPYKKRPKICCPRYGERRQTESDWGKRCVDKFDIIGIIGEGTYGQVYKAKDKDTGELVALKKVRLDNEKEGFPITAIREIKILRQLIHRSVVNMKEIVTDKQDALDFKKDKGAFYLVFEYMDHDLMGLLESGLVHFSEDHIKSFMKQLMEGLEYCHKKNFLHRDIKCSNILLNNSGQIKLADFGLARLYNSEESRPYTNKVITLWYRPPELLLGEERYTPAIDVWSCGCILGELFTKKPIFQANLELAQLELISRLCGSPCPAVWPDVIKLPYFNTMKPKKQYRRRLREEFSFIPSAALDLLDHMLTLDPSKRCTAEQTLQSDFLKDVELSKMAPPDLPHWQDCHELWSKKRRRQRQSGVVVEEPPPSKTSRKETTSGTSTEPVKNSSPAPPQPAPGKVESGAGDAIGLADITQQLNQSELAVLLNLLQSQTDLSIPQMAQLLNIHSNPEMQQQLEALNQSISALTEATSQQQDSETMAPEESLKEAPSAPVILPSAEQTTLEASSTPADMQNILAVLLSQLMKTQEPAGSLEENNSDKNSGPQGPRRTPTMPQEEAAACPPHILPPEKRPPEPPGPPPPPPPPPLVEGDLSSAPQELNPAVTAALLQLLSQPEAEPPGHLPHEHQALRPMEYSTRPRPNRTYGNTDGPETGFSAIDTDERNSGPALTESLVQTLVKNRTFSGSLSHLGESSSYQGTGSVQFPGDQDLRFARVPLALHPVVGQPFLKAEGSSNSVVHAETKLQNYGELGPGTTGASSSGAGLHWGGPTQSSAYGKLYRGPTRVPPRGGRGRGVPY
# CDK12/CyclinK, sequence (O75909 whole entry partner): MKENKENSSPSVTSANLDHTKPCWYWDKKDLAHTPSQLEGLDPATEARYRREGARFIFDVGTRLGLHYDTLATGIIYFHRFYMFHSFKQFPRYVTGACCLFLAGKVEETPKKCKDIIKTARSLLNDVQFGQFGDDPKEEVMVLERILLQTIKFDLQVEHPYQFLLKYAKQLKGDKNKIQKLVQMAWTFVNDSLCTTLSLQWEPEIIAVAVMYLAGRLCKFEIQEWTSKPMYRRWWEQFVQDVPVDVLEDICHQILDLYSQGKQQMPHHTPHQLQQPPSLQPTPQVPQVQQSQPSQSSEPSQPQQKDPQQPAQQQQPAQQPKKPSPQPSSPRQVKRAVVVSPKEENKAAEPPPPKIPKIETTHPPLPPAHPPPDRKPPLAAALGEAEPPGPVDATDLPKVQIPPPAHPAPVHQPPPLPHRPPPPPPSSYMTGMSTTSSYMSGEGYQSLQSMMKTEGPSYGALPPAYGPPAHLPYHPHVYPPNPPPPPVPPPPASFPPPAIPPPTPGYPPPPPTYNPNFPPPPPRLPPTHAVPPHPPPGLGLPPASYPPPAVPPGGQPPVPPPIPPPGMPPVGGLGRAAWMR
SMILES,"IC50 [1, 4] [µM]",GI50 [2] [µM],GI50 [3] [µM],"IC50 [1, 5] [µM]",IC50 ([1]; read-out: CDK12/cyclinK IC50) [µM]
"c1cncc(-c2ccc(CNc3nc(-c4cccnc4)nc4c3ncn4C3CCOCC3)cn2)c1 [Compound 28c, N-([2,3′-Bipyridin]-5-ylmethyl)-2-(pyridin-3-yl)-9-(tetrahydro-2H-pyran-4-yl)-9H-purin-6-amine]",–,44.4 ± 2.46,> 100,–,–
"CC(C)n1cnc2c(NCc3nc4ccc(F)c(F)c4[nH]3)nc(N3CCCC[C@H]3CCO)nc21 [Compound 2, reference compound]",–,0.069 ± 0.006,0.094 ± 0.012,0.0086 ± 0.0017,–
"CC(C)n1cnc2c(NCc3ccc(-c4cccnc4)nc3)nc(-c3ccc(NCCCO)nc3)nc21 [Compound 22b, 3-((5-(6-(([2,3′-Bipyridin]-5-ylmethyl)amino)-9-isopropyl-9H-purin-2-yl)pyridin-2-yl)amino)propan-1-ol]",0.304,0.977 ± 0.07,1.18 ± 0.118,–,–
"c1cncc(-c2ccc(CNc3nc(-c4cccnc4)nc4c3ncn4C3CCCC3)cn2)c1 [Compound 28b, N-([2,3′-Bipyridin]-5-ylmethyl)-9-cyclopentyl-2-(pyridin-3-yl)-9H-purin-6-amine]",0.293,2.14 ± 0.176,2.6 ± 0.31,–,–
"CC(C)n1cnc2c(NCc3ccc(-c4cccnc4)nc3)nc(-c3ccc(NCCCO)cc3)nc21 [Compound 20d, 3-((4-(6-(([2,3′-Bipyridin]-5-ylmethyl)amino)-9-isopropyl-9H-purin-2-yl)phenyl)amino)propan-1-ol]",0.499,0.907 ± 0.068,1.09 ± 0.127,–,–
"CC(C)n1cnc2c(NCc3ccc(-c4cccnc4)nc3)nc(-c3ccnc(NCCCO)c3)nc21 [Compound 22d, 3-((4-(6-(([2,3′-Bipyridin]-5-ylmethyl)amino)-9-isopropyl-9H-purin-2-yl)pyridin-2-yl)amino)propan-1-ol]",0.113,0.387 ± 0.037,0.48 ± 0.026,–,–
"Cc1cc(N)n(-c2nc(NCc3ccc(-c4cccnc4)nc3)c3ncn(C(C)C)c3n2)n1 [Compound 24, N-([2,3′-Bipyridin]-5-ylmethyl)-2-(5-amino-3-methyl-1H-pyrazol-1-yl)-9-isopropyl-9H-purin-6-amine]",2.35,3.44 ± 0.177,5.16 ± 0.365,–,–
"CN(C)C/C=C/C(=O)Nc1ccc(C(=O)N2CCC[C@@H](Nc3ncc(Cl)c(-c4c[nH]c5ccccc45)n3)C2)cc1 [THZ531, reference compound]",–,0.195 ± 0.05,0.03 ± 0.006,0.051 ± 0.007,–
"CC(C)n1cnc2c(NCc3ccc(-c4cccnc4)nc3)nc(-c3cccc(NCCCO)c3)nc21 [Compound 20c, 3-((3-(6-(([2,3′-Bipyridin]-5-ylmethyl)amino)-9-isopropyl-9H-purin-2-yl)phenyl)amino)propan-1-ol]",0.257,0.502 ± 0.025,0.732 ± 0.177,–,–
"CC(C)n1cnc2c(NCc3ccc(-c4cccnc4)nc3)nc(-c3ccccc3NCCO)nc21 [Compound 20a, 2-((2-(6-(([2,3′-Bipyridin]-5-ylmethyl)amino)-9-isopropyl-9H-purin-2-yl)phenyl)amino)ethan-1-ol]",0.799,1.56 ± 0.116,2.3 ± 0.318,–,–
"CC(C)n1cnc2c(NCc3ccc(-c4cccnc4)nc3)nc(-c3ccccc3NCCCO)nc21 [Compound 20b, 3-((2-(6-(([2,3′-Bipyridin]-5-ylmethyl)amino)-9-isopropyl-9H-purin-2-yl)phenyl)amino)propan-1-ol]",3.01,6.05 ± 0.351,11.2 ± 1.12,–,–
"CC[C@H](CO)Nc1nc(NCc2ccc(-c3ccccn3)cc2)c2ncn(C(C)C)c2n1 [R-CR8 (9), reference compound]",–,0.083 ± 0.011,0.101 ± 0.014,–,–
"CC(C)n1cnc2c(NCc3ccc(-c4cccnc4)nc3)nc(-n3cc(CO)nn3)nc21 [Compound 26a, (1-(6-(([2,3′-Bipyridin]-5-ylmethyl)amino)-9-isopropyl-9H-purin-2-yl)-1H-1,2,3-triazol-4-yl)methanol]",2.05,9.97 ± 1.86,13.3 ± 3.15,–,–

# Next, values leading:
"IC50 [1, 4] [µM]",GI50 [2] [µM],GI50 [3] [µM],"IC50 [1, 5] [µM]",IC50 ([1]; read-out: CDK12/cyclinK IC50) [µM],SMILES
0.164,1.27 ± 0.021,1.68 ± 0.267,–,–,"CC(C)n1cnc2c(NCc3ccc(-c4cccnc4)nc3)nc(-c3ccnc(F)c3)nc21 [Compound 21b, N-([2,3′-Bipyridin]-5-ylmethyl)-2-(2-fluoropyridin-4-yl)-9-isopropyl-9H-purin-6-amine]"
0.086,0.433 ± 0.052,0.473 ± 0.087,–,–,"CC(C)n1cnc2c(NCc3ccc(-c4cccnc4)nc3)nc(-c3ccnc(NCCO)c3)nc21 [Compound 22c, 2-((4-(6-(([2,3′-Bipyridin]-5-ylmethyl)amino)-9-isopropyl-9H-purin-2-yl)pyridin-2-yl)amino)ethan-1-ol]"
1.43,1.17 ± 0.027,1.99 ± 0.12,–,–,"CC(C)n1cnc2c(NCc3ccc(-c4cccnc4)nc3)nc(-c3cn[nH]c3)nc21 [Compound 18n, N-([2,3′-Bipyridin]-5-ylmethyl)-9-isopropyl-2-(1H-pyrazol-4-yl)-9H-purin-6-amine]"
0.051,0.31 ± 0.041,0.318 ± 0.149,–,< 0.1,"CC(C)n1cnc2c(NCc3ccc(-c4cccnc4)nc3)nc(-c3cncnc3)nc21 [Compound 18k, N-([2,3′-Bipyridin]-5-ylmethyl)-9-isopropyl-2-(pyrimidin-5-yl)-9H-purin-6-amine]"
0.623,1.12 ± 0.26,1.69 ± 0.243,–,–,"CC(C)n1cnc2c(NCc3ccc(-c4cccnc4)nc3)nc(-c3ccccc3)nc21 [Compound 18a, N-([2,3′-Bipyridin]-5-ylmethyl)-9-isopropyl-2-phenyl-9H-purin-6-amine]"
0.09,0.942 ± 0.125,1.27 ± 0.33,–,–,"Cc1ccc(-c2nc(NCc3ccc(-c4cccnc4)nc3)c3ncn(C(C)C)c3n2)cn1 [Compound 18h, N-([2,3′-Bipyridin]-5-ylmethyl)-9-isopropyl-2-(6-methylpyridin-3-yl)-9H-purin-6-amine]"
0.153,0.494 ± 0.048,0.804 ± 0.095,–,–,"CC(C)n1cnc2c(NCc3ccc(-c4ccncc4)nc3)nc(-c3cccnc3)nc21 [Compound 17g, N-([2,4′-Bipyridin]-5-ylmethyl)-9-isopropyl-2-(pyridin-3-yl)-9H-purin-6-amine]"
0.17,0.341 ± 0.059,0.614 ± 0.055,–,–,"CC(C)n1cnc2c(NCc3ccc(-c4cccnc4)nc3)nc(-c3cccc(N)c3)nc21 [Compound 19b, N-([2,3′-Bipyridin]-5-ylmethyl)-2-(3-aminophenyl)-9-isopropyl-9H-purin-6-amine]"
0.065,0.278 ± 0.007,0.376 ± 0.067,–,< 0.1,"CC(C)n1cnc2c(NCc3ccc(-c4cccnc4)nc3)nc(-c3ccc(N)nc3)nc21 [Compound 18i, N-([2,3′-Bipyridin]-5-ylmethyl)-2-(6-aminopyridin-3-yl)-9-isopropyl-9H-purin-6-amine]"
0.501,1.13 ± 0.05,1.72 ± 0.336,–,–,"CC(C)n1cnc2c(NCc3ccc(-c4cccnc4)nc3)nc(-c3ccn[nH]3)nc21 [Compound 18m, N-([2,3′-Bipyridin]-5-ylmethyl)-9-isopropyl-2-(1H-pyrazol-5-yl)-9H-purin-6-amine]"
0.484,3.14 ± 0.201,3.71 ± 0.45,–,–,"CC(C)n1cnc2c(NCc3ccc(-c4cccnc4)nc3)nc(-c3ccc(C(N)=O)cc3)nc21 [Compound 18c, 4-(6-(([2,3′-Bipyridin]-5-ylmethyl)amino)-9-isopropyl-9H-purin-2-yl)benzamide]"
0.619,2.63 ± 0.448,2.61 ± 0.899,–,–,"CC(C)n1cnc2c(NCc3ccc(-c4cccnc4)nc3)nc(-c3ccccc3N)nc21 [Compound 19a, N-([2,3′-Bipyridin]-5-ylmethyl)-2-(2-aminophenyl)-9-isopropyl-9H-purin-6-amine]"
0.504,1.14 ± 0.304,1.62 ± 0.248,–,–,"CC(C)n1cnc2c(NCc3ccc(-c4cccnc4)nc3)nc(-c3cccc(C(N)=O)c3)nc21 [Compound 18b, 3-(6-(([2,3′-Bipyridin]-5-ylmethyl)amino)-9-isopropyl-9H-purin-2-yl)benzamide]"
0.053,0.174 ± 0.019,0.262 ± 0.021,–,–,"CC(C)n1cnc2c(NCc3ccc(-c4cccnc4)nc3)nc(-c3ccc(NCCO)nc3)nc21 [Compound 22a, 2-((5-(6-(([2,3′-Bipyridin]-5-ylmethyl)amino)-9-isopropyl-9H-purin-2-yl)pyridin-2-yl)amino)ethan-1-ol]"
0.094,0.354 ± 0.06,0.71 ± 0.024,–,< 0.1,"CC(C)n1cnc2c(NCc3ccc(-c4cccnc4)nc3)nc(-c3ccnc(N)c3)nc21 [Compound 18j, N-([2,3′-Bipyridin]-5-ylmethyl)-2-(2-aminopyridin-4-yl)-9-isopropyl-9H-purin-6-amine]"
0.221,0.247 ± 0.03,0.41 ± 0.034,–,–,"CC(C)n1cnc2c(NCc3ccc(-c4cccnc4)nc3)nc(-c3cccnc3)nc21 [Compound 17f, N-([2,3′-Bipyridin]-5-ylmethyl)-9-isopropyl-2-(pyridin-3-yl)-9H-purin-6-amine]"
